The text below walks through data of US8895504B2, “Amylin derivatives” (priority 2008, dated 2014).

*1 amine or outer side, *2 acyl side, *3 side chain or, on linkers, in order; H or OH if unused. Where a SMILES comes first, the peptide text is derived from it. Bridges are numbered along the chain shown (N, C = ends). The star is where a group is joined. C20 diacid = O=C(O)CCCCCCCCCCCCCCCCCCC(=O)*; γGlu = O=C(O)[C@H](CCC(=O)[*:2])N[*:1]

Series [1] is described as follows: Assay (V) PK - determination of T½ in mini-pig. The class given is in vivo. The conditions noted are these: minipig, sc; terminal plasma half-life, subcutaneous, approx 2 nmol/kg, male Göttingen mini-pigs. The essentials: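 Male Göttingen mini-pigs (5–12 months, 7–35 kg) got a single s.c. neck injection of approx 2 nmol/kg; plasma sampled via central venous catheter predose to 240 h (some to 288 h). Amylin measured by sandwich ELISA; T½ = ln 2/λz from non-compartmental analysis of individual profiles.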

A short description of series [2]: Assay (VI) PK - determination of T½ in rat. The class given is in vivo. The conditions noted are these: sc, terminal plasma half-life, subcutaneous, approx 20 nmol/kg, male Sprague Dawley rats. The protocol: Assay (VI) PK—Determination OF T½ in Rat
T½ is the terminal half-life=ln 2/λz of a compound in plasma. λz is the first order rate constant associated with the terminal (log-linear) portion of the plasma concentration-time curve and is estimated by linear regression of time vs. log concentration.
T½ values of the amylin analogues of the invention is determined by pharmacokinetic studies in Sprague Dawley male rats, from Taconic Europe and the principles of laboratory animal care are followed.
An acclimatization period of approximately 7 days was allowed before the animals entered the study. At start of the acclimatization period the rats were in the weight range of 300-400 g. The rats had permanent catheters inserted in a. carotis which were used for blood sampling.
The studies were conducted in an animal room which was illuminated to give a cycle of approx 12 hours light and 12 hours darkness. The animals were housed individually due to the catheters and had food and water ad lib. The animals were weighed on the days of dosing.
In the present studies the test substances were administered subcutaneously in approx 20 nmol/kg dose. The animals received a single subcutaneous injection to the neck using a 25 G needle with syringe. Each test substance was given to typically three but in some cases two or four animals.
A full plasma concentration-time profile, employing 8-10 sampling points, was obtained from each animal. In example blood samples were collected according to the following schedule:
After subcutaneous administration:
Predose (0), 0.5, 1, 1.5, 2, 4, 6, 12, 24, 48 and 72 hours after injection. At each sampling time, 0.08 to 0.10 ml of blood was drawn from each animal. The blood samples were taken via the catheter.
The blood samples were collected into EDTA test tubes. Blood samples were kept on ice for max 20 min. before centrifugation. Plasma was separated using centrifugation (i.e. at 4° C., 10 min., 1500 G) and was immediately transferred to Micronic tubes or PCR plates. Approximately 40 μl plasma was transferred and was stored at −20° C. until assayed. The plasma samples were assayed for the content of amylin using an ELISA assay.
The plasma concentration-time profiles were analysed by a non-compartmental pharmacokinetic analysis (NCA) using WinNonlin Professional 5.0 (Pharsight Inc., Mountain View, Calif., USA). NCA was performed using the individual plasma concentration-time profiles from each animal. T½ is the terminal half-life=ln 2/λz and was determined from λz, the first order rate constant associated with the terminal (log-linear) portion of the curve, estimated by linear regression of time vs. log concentration.
ELISA Plasma Assay for Amylin Quantification
The human amylin ELISA is a monoclonal antibody-based sandwich immunoassay for determining amylin levels in human plasma. The capture antibody recognizes human amylin, amylin acid (deamidated amylin), a 1-20 fragment of amylin, but not reduced amylin. The detection antibody binds to reduced or unreduced human amylin but not amylin acid and is complexed with streptavidin-alkaline phosphatase. The substrate, 4-methylumbelliferyl phosphate, is applied to the completed sandwich and the fluorescent signal, monitored at 355 nm/460 nm, is proportional to the amount of amylin present in the sample.

Broadly, the half-life is how long it takes for the measured level to halve. High values mean slow loss, low ones fast loss. Consider `CC[C@H](C)[C@H](NC(=O)[C@@H]1CCCN1C(=O)CNC(=O)[C@H](Cc1ccccc1)NC(=O)[C@H](CC(N)=O)NC(=O)[C@H](CC(N)=O)NC(=O)[C@H](CO)NC(=O)[C@H](CO)NC(=O)[C@H](Cc1c[nH]cn1)NC(=O)[C@H](Cc1c[nH]cn1)NC(=O)[C@H](CC(C)C)NC(=O)[C@H](Cc1ccccc1)NC(=O)[C@H](CC(N)=O)NC(=O)[C@H](C)NC(=O)[C@H](CC(C)C)NC(=O)[C@H](CCCNC(=N)N)NC(=O)[C@H](CCC(N)=O)NC(=O)[C@@H](NC(=O)[C@H](C)NC(=O)[C@@H]1CSSC[C@H](NC(=O)[C@H](Cc2c[nH]cn2)NC(=O)[C@H](Cc2c[nH]cn2)NC(=O)[C@H](Cc2c[nH]cn2)NC(=O)CC[C@H](NC(=O)CCCCCCCCCCCCCCCCCCC(=O)O)C(=O)O)C(=O)N[C@@H](CC(N)=O)C(=O)N[C@@H]([C@@H](C)O)C(=O)N[C@@H](C)C(=O)N[C@@H]([C@@H](C)O)C(=O)N1)[C@@H](C)O)C(=O)N[C@@H](CC(C)C)C(=O)N1CCC[C@H]1C(=O)N1CCC[C@H]1C(=O)N[C@H](C(=O)N[C@@H](CC(N)=O)C(=O)N[C@H](C(=O)NCC(=O)N[C@@H](CO)C(=O)N[C@@H](CC(N)=O)C(=O)N[C@H](C(=O)N[C@@H](Cc1ccc(O)cc1)C(N)=O)[C@@H](C)O)C(C)C)[C@@H](C)O` [Example 39, N-alpha-[(S)-4-Carboxy-4-(19-carboxynonadecanoylamino)butyryl]-His-His-[His1,His17]-pramlintide] ({C20 diacid-γGlu}-HHHCNTATCATQRLANFLHHSSNNFGPILPPTNVGSNTY-NH2; disulfide 4-9), for which the half-life in series [1] was 60 h; in series [2], 14 h.
